Publication PMC9681850, “Structural basis of synthetic agonist activation of the nuclear receptor REV-ERB” (Nature Communications, 2022)
Values joined by “and” are separate entries in the source; they are usually repeats but may differ in a detail not shown here. Equal entries are not always repeated. Where two headings read alike, the source gives them in different places.

What was measured:
5-HT1D = biological target: T1, 5-HT1D (Homo sapiens, UniProt P28221); assay: PDSP radioligand binding assay; details: read-out: RLBA Ki
T1 construct: NIMH Psychoactive Drug Screening Program (assay performed there)
Excerpt: (§1) Receptor RLBA Ki Receptor activity
(§2) Suppl ementary Tabl e 1. Speci fi ci ty of STL1267. […]

5-HT1A = biological target: T2, 5-HT1A (Homo sapiens, UniProt P08908); assay: PDSP radioligand binding assay; details: read-out: RLBA Ki
T2 construct: NIMH Psychoactive Drug Screening Program (assay performed there)
Excerpt: as §1, §2

5-HT2A = biological target: T3, 5-HT2A (Homo sapiens, UniProt P28223); assay: PDSP radioligand binding assay; details: read-out: RLBA Ki
T3 construct: NIMH Psychoactive Drug Screening Program (assay performed there)
Excerpt: as §1, §2

BZP Rat Brain Site = assay: PDSP radioligand binding assay; details: read-out: RLBA Ki
Excerpt: as §1, §2

M3 = M3 (Homo sapiens, UniProt P20309); assay: PDSP radioligand binding assay; details: read-out: RLBA Ki
Excerpt: as §1, §2

D1 = D1 (Homo sapiens, UniProt P21728); assay: PDSP radioligand binding assay; details: read-out: RLBA Ki
Excerpt: as §1, §2

Alpha2A = biological target: T4, Alpha2A (Homo sapiens, UniProt P08913); assay: PDSP radioligand binding assay; details: read-out: RLBA Ki
T4 construct: NIMH Psychoactive Drug Screening Program (assay performed there)
Excerpt: as §1, §2

H1 = H1 (Homo sapiens, UniProt P35367); assay: PDSP radioligand binding assay; details: read-out: RLBA Ki
Excerpt: as §1, §2

H4 = H4 (Homo sapiens, UniProt Q9H3N8); assay: PDSP radioligand binding assay; details: read-out: RLBA Ki
Excerpt: as §1, §2

5-HT7A = biological target: T5, 5-HT7A (Homo sapiens, UniProt P34969); assay: PDSP radioligand binding assay; details: read-out: RLBA Ki
T5 construct: NIMH Psychoactive Drug Screening Program (assay performed there)
Excerpt: as §1, §2

Alpha1A = biological target: T6, Alpha1A (Homo sapiens, UniProt P35348); assay: PDSP radioligand binding assay; details: read-out: RLBA Ki
T6 construct: NIMH Psychoactive Drug Screening Program (assay performed there)
Excerpt: as §1, §2

M4 = M4 (Homo sapiens, UniProt P08173); assay: PDSP radioligand binding assay; details: read-out: RLBA Ki
Excerpt: as §1, §2

M1 = M1 (Homo sapiens, UniProt P11229); assay: PDSP radioligand binding assay; details: read-out: RLBA Ki
Excerpt: as §1, §2

5-HT2C = biological target: T7, 5-HT2C (Homo sapiens, UniProt P28335); assay: PDSP radioligand binding assay; details: read-out: RLBA Ki
T7 construct: NIMH Psychoactive Drug Screening Program (assay performed there)
Excerpt: as §1, §2

NET = NET (Homo sapiens, UniProt P23975); assay: PDSP radioligand binding assay; details: read-out: RLBA Ki
Excerpt: as §1, §2

MOR = MOR (Homo sapiens, UniProt P35372); assay: PDSP radioligand binding assay; details: read-out: RLBA Ki
Excerpt: as §1, §2

REV-ERBα LBD = biological target: T8, REV-ERBα LBD (Homo sapiens, UniProt P20393); assay: FRET assay of NCoR ID1 CoRNR box recruitment; type: biochemical; parameters: agonist-dependent recruitment of NCoR ID1 CoRNR box to the REV-ERBα-LBD
T8 sequence (P20393 284-614 limits assumed): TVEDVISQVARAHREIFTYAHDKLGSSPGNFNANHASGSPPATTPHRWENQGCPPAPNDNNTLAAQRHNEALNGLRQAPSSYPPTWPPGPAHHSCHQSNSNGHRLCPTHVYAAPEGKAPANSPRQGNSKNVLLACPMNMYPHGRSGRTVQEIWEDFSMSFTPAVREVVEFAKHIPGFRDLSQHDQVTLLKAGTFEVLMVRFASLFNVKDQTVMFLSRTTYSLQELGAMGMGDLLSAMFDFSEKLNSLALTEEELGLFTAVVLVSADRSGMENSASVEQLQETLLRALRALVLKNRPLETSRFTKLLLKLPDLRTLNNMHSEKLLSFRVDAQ
Procedure: We noted a recent patent that described a series of REV-ERB agonists (6-substituted[1,2,4]triazolo[4,3-b]pyridazines) in assays that detected the ability of small molecules to enhance the interaction of REV-ERBα with NCoR either in biochemical or cell-based assays.
Histidine tagged REV-ERBα/β complexed with heme was added to each well to a final concentration of 4 nM. NCoR ID1 fluorescein (ref#PV4622, Batch# 1797468C) was added to each well to a final concentration of 150 nM, and terbium anti-histidine (ref#PV5895, batch 1730002B) was added to a final concentration of 1 nM. Mixture was incubated at room temperature on an orbital shaker for 1 h at 200 rpm. The lanthascreen assay protocol (Dual PMT, excitation 340 nm, dual emission 495/520, Gain 110/110) was used to read the plate.

REV-ERBα F488A = biological target: T9, REV-ERBα F488A (Homo sapiens, UniProt P20393, F488A); assay: two-hybrid reporter assay with mutant receptor; type: cell-based; details: F488A vs WT
T9 construct: WT or mutant Gal4DBD- full length REV-ERBα fusion and NCoR1-VP16 fusion protein; expressed in transfected cells; host or cells: HEK293 cells with Gal4UAS luciferase reporter stably integrated
Procedure: The removal of the bulkier Phe488 sidechain may allow for the ligand binding pocket to wrap around the ligand more tightly, which may explain the higher activity of this mutant REV-ERB.
The NCoR-Vp16 plasmid and REV-ERBα/β-FL GAL4-DBD wild-type or point mutation plasmids were incubated with the transfection agent, Lipofectamine 2000. GFP plasmid was also in the transfection mix to confirm transfection efficiency. HEK cells were plated in 10 cm dishes for western blot analysis, and HEK UAS-luc cells were plated in 96 well plates for luciferase assay analysis. Prior to cellular adherence, transfection mix was added. The cells and transfection mix were incubated at 37 °C in a humidified atmosphere of 5% CO2. The transfection incubation lasted overnight for luciferase assays and 48 h for protein isolation/western blot analysis. For luciferase assays, REV-ERB agonists were added in an 11-point serial dilution the day following overnight transfection. Cells were incubated with the compound for 24 h, prior to luciferin addition and luminescence read out.

[1] = biological target: serotonin transporter (SERT) (Homo sapiens, UniProt P31645); assay: PDSP radioligand binding assay; details: secondary full displacement curve, read-out: RLBA Ki
Excerpt: (§3) We assessed the specificity of STL1267 using both in house nuclear receptor Gal4-NR reporter assays and the NIMH Psychoactive Drug Screening Program (PDSP) assays. We assessed the specificity of STL1267 in the PDSP’s radioligand displacement assays, screening for binding to off-target GPCRs, ion channels, transporters, and other drug targets (Table S1). Of the 43 targets assessed in this panel, we observed no detectable binding in 41 of them. […] Additional assessment in serotonin transporter and kappa opioid receptor activity in a functional assay may be warranted to determine absolute specificity. […]
as §1, §2

[2] = biological target: kappa opioid receptor (KOR) (Homo sapiens, UniProt P41145); assay: PDSP radioligand binding assay; details: secondary full displacement curve, read-out: RLBA Ki
Excerpt: as §3, §1, §2

REV-ERBα = system: REV-ERBα; parameters: method as in ref 21 = [21]; 21. Bourotte, et al. Derivatives of 6-substituted triazolopyridazines as Rev-Erb agonists. (ed. States, U.) (United States, 2012).; details: enhancement of REV-ERBα/NCoR interaction, biochemical or cell-based assays; cited from earlier work

serotonin transporter (SERT), sequence (P31645 whole entry, species assumed, the tested form may be a part): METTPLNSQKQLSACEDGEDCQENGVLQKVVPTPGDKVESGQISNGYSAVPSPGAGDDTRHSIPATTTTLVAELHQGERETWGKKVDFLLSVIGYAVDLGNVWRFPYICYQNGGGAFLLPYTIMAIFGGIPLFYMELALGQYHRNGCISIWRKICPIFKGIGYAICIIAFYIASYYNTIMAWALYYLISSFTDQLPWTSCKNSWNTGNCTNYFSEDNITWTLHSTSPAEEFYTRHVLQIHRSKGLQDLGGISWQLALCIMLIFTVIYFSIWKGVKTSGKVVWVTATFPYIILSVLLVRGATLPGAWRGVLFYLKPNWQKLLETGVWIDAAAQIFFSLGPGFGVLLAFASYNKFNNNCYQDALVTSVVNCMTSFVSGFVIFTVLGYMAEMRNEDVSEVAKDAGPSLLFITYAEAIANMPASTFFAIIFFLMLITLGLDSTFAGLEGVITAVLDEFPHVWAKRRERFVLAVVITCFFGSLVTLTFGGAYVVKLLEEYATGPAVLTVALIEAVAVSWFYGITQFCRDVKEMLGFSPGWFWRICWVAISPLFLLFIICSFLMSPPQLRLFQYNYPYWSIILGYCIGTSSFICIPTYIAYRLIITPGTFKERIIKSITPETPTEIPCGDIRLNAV
T5 sequence (P34969 1-445 isoform P34969-2): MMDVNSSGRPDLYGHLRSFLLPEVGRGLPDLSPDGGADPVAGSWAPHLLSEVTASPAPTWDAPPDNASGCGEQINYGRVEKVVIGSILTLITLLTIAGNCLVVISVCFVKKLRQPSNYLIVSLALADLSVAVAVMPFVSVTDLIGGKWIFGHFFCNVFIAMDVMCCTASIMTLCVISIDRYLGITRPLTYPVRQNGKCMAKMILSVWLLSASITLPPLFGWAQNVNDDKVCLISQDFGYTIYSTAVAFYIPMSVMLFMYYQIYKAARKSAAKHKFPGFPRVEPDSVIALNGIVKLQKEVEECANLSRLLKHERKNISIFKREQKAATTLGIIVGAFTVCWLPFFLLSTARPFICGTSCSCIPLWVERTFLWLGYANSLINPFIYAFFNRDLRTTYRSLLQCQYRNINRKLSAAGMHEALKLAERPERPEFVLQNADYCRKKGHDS
M1, sequence (P11229 whole entry): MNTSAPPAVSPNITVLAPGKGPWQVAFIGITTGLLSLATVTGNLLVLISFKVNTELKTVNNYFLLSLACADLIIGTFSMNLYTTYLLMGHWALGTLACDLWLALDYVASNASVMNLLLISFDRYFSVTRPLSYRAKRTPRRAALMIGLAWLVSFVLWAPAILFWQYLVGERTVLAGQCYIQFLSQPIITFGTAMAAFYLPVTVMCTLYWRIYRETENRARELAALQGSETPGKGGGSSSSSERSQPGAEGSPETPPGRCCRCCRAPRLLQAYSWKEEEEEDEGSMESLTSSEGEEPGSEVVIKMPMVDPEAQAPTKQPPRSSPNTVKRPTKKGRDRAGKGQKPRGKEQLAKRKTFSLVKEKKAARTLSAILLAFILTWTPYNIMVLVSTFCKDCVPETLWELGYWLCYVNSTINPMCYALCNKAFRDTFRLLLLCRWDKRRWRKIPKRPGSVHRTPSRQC
MOR, sequence (P35372 whole entry): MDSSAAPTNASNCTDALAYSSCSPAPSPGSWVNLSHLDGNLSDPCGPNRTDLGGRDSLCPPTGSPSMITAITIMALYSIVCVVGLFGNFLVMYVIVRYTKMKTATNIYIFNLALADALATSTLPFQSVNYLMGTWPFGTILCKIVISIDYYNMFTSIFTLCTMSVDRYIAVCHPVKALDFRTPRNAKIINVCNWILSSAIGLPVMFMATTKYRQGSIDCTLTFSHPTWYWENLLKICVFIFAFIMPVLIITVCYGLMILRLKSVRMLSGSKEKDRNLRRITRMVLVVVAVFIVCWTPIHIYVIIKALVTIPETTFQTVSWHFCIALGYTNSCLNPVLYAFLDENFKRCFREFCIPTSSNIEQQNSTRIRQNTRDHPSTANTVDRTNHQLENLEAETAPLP
T7 sequence (P28335 33-458, species assumed): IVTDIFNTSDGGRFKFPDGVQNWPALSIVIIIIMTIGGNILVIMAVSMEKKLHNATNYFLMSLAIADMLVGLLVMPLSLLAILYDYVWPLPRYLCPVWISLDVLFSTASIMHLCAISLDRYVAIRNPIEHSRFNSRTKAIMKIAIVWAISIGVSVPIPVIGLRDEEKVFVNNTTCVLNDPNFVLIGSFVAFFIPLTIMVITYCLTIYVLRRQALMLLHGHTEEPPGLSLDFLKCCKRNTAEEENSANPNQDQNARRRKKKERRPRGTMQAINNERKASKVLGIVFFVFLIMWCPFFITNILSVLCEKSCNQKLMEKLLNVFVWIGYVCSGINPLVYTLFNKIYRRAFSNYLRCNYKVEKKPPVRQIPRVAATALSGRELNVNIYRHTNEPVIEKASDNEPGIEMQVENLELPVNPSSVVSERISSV
T6 sequence (P35348 whole entry): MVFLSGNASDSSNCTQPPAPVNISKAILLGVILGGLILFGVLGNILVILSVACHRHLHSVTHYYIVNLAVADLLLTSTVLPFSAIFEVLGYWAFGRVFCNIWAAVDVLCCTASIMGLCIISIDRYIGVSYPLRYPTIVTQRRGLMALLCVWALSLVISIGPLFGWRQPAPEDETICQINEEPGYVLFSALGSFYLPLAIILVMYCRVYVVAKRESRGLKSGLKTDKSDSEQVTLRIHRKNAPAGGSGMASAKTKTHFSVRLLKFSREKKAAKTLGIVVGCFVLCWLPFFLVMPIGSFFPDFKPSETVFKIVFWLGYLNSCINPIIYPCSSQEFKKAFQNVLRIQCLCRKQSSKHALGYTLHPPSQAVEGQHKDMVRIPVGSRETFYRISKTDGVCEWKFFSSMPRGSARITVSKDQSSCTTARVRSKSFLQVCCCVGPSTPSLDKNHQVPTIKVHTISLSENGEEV
T2 sequence (P08908 whole entry, species assumed): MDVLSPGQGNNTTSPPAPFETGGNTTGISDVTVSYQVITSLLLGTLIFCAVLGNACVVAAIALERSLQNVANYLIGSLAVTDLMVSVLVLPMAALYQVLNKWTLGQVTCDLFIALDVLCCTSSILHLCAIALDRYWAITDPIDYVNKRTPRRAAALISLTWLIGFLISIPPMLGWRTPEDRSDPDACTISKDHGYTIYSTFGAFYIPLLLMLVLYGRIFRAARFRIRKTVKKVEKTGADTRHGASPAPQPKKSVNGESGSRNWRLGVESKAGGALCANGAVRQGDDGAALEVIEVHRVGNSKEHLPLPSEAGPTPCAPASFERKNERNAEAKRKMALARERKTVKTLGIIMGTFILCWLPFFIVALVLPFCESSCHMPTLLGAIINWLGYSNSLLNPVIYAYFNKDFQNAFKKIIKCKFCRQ
M3, sequence (P20309 whole entry): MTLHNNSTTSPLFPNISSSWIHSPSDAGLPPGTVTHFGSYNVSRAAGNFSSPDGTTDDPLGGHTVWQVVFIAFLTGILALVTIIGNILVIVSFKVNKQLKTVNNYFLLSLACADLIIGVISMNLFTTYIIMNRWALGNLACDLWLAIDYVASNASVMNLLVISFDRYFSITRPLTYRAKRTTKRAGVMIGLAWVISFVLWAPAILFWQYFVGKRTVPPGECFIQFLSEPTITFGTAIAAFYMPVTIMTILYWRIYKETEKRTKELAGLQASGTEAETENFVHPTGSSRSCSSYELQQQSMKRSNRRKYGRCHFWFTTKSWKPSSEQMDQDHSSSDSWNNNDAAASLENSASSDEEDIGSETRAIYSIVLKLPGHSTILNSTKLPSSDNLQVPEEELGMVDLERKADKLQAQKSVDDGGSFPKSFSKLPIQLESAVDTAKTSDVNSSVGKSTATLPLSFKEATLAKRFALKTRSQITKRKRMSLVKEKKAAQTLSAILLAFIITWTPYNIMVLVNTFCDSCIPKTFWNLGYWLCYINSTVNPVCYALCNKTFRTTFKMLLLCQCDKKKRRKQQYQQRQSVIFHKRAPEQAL
T1 sequence (P28221 whole entry, species assumed): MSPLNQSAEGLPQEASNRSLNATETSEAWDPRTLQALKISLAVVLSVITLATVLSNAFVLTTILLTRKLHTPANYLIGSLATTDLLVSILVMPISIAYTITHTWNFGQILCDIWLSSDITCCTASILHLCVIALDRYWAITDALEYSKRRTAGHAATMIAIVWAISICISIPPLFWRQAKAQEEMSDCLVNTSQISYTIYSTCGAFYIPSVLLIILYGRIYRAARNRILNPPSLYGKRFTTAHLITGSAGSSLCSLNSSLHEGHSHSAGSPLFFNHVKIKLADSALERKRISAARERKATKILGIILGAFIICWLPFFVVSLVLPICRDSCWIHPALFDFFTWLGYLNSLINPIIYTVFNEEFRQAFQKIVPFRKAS
H1, sequence (P35367 whole entry): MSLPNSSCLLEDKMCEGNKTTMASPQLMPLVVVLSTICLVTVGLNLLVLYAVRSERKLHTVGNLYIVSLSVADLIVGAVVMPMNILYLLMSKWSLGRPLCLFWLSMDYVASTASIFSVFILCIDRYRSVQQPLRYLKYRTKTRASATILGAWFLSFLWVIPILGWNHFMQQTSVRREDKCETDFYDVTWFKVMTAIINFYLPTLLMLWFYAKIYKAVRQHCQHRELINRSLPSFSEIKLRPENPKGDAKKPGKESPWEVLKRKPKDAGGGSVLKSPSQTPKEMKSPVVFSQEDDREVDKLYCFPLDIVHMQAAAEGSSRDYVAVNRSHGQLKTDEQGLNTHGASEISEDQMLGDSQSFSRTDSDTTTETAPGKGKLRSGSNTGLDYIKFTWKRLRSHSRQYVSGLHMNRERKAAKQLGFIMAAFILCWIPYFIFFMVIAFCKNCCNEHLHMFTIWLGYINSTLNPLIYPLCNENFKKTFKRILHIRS

Ki (5-HT1D): > 10 µM
Ki (5-HT1A): > 10 µM
Ki (5-HT2A): > 10 µM
Ki (BZP Rat Brain Site): > 10 µM
Ki (M3): > 10 µM
Ki (D1): > 10 µM
Ki (Alpha2A): > 10 µM
Ki (H1): > 10 µM
Ki (H4): > 10 µM
Ki (5-HT7A): > 10 µM
Ki (Alpha1A): > 10 µM
Ki (M4): > 10 µM
Ki (M1): > 10 µM
Ki (5-HT2C): > 10 µM
Ki (NET): > 10 µM
Ki (MOR): > 10 µM
efficacy of NCoR ID1 recruitment relative to SR9009 (REV-ERBα LBD): roughly double
potency relative to SR9009 in the FRET assay (REV-ERBα LBD): more than ten times greater
EC50 (REV-ERBα LBD; REV-ERBα-LBD): 0.13 µM
potency relative to SR9009 in the FRET assay (REV-ERBα LBD; listed as 1267): 14.6 fold
Ki [1]: 2 to 4 µM and 2.1 µM
Ki [2]: 0.72 µM
SMILES: Clc1nnc2ccc(Oc3ccccc3-c3ccccc3)nn12 [STL1267]
effect of mutation on NCoR recruitment activity (REV-ERBα F488A): impressive improvement in potency and efficacy
potency (REV-ERBα): 0.1 to 0.3 µM
